# Like-named read-outs stand apart in the source and are kept apart here.
# Assays:
# [1] = Fe2+-induced lipid peroxidation (thiobarbituric acid); type: biochemical
# From the text: Ajuga reptans Extracts 1 and 2, prepared as described in examples 1 and 2, and isoteupolioside have been used to assess in vitro antioxidant action with specific oxygen radical generating systems such as the superoxide anion (O2^−), the hydroxyl radical (HO^−), the peroxynitrite radical (ONOO^−) and the inhibition of lipid peroxidation. The superoxide anion has been measured by a chemiluminescent assay based on the hypoxanthine (HPX)/xanthine oxidase (XOD) reaction using the Lumimax Superoxide Anion Detection Kit (Stratagene, La Jolla, Calif., USA) and following the manufacturer's instructions. Hydroxyl radical scavenger activity has been measured by means of the Fenton reaction for the production of hydroxyl radicals and chemiluminescent dosage (using a Victor^3 chemiluminometer, Wallac, Finland) with luminol. Peroxynitrite ions have been determined by means of dosage with a spontaneous generator of peroxynitrites (3-morpholinosidnonimine hydrochloride; SIN-1) and a stable reagent for the nitroxyl ions (2-(4-carboxyphenyl)-4,4,5,5-tetramethylimidazoline-1-oxyl-3-oxide potassium salt PTIO spin trap) then dosed by means of electron spin resonance (ESR) using a Nippon Denshi JES-FR30. […]
# [2] = target: T1, 5 alpha reductase, type I (Homo sapiens, UniProt P18405); test: Type I 5 alpha reductase inhibition ([14C] testosterone conversion); type: biochemical
# T1 construct: made in house; host or cells: genetically modified yeast
# T1 sequence (P18405 1-259): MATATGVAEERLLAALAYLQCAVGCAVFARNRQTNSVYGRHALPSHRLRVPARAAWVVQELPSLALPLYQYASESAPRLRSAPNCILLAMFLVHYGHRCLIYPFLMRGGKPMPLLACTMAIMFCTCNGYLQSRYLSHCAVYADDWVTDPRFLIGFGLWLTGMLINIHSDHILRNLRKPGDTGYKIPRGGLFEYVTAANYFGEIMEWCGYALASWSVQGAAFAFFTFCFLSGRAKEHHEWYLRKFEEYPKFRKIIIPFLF
# Description: Determination of the 5 alpha reductase inhibitory activities by Ajuga reptans extracts in comparison to Serenoa repens extracts. Said determination has been performed using enzymes (5 alpha reductase, type I and type II) produced by genetically modified yeast. Enzyme activities have been determined in the presence of Ajuga reptans extracts, teupolioside, isoteupolioside and Serenoa repens extracts.
# Type I 5 alpha reductase activity has been assayed by incubating the enzyme in 0.1 M Tris-citrate buffer (pH 7.0), containing 5 μM [^14C] radio-labelled testosterone (Amersham, Sweden) and 5 mM NADPH (Sigma) in a final volume of 5 ml. The solution thus obtained has been incubated for 1 hour at 37° C.
# In both assays, the steroids have been extracted using 5 ml of methylene chloride. The extracts have then been dried under a stream of nitrogen and the dried residues obtained have been dissolved in 20 μl of a chloroform-methanol mixture (2:1 v/v). […] For quantification of the results, the spots have been scraped from the TLC plate and extracted with 2 ml of ethyl acetate. The extracts obtained have been analysed, using scintillation fluid, with the aid of a Wallach β-counter. The enzyme activity has been calculated from the percentage conversion (C %) of the substrate into final product: C%=[counted product/(counted substrate+product)]×100.
# [3] = tested on: Pseudomonas aeruginosa ATCC 9027; test: Multiple dilution assay, growth in culture broth; type: cell-based; settings: for T0 (CFU/ml) / T7d (CFU/ml) / T14d (CFU/ml) / T21d (CFU/ml) / T28d (CFU/ml): 30° C.; for T7d (CFU/ml): 7 days; for T14d (CFU/ml): 14 days; for T21d (CFU/ml): 21 days; for T28d (CFU/ml): 28 days
# Description: (§1) To the purpose of detecting any antimicrobial activity of the Ajuga reptans extract and the individual phenylpropanoid isoteupoloside (FPD) and teupolioside (FPA), an assay has been prepared, generally known as multiple dilution assay, with the following microbial strains: Pseudomonas aeruginosa ATCC 9027; Candida albicans ATCC 2091. The phenylpropanoids FPD, FPA and the Extract 2 of Ajuga reptans were assayed at the concentrations of 0.5 mg/ml, 2 mg/ml and 5 mg/ml. The microbial strains for the test were inoculated in culture broths (in Triptone soy broth medium) containing the substances to be assayed at the concentrations described above. In parallel with these tests, culture broths containing the microbial strain alone have been prepared (controls). The culture-broths have been incubated at 30° C. for a period of 28 days. […] A certain number of serial dilutions have been prepared for each sample in order to determine the microbial load of each culture-broth. Each dilution has been assayed in triplicate on solid medium. Then number of CFUs reported in the table is the mean of the counts performed on the triplicate assays.
# [4] = tested on: Candida albicans ATCC 2091; test: Multiple dilution assay, growth in culture broth; type: cell-based; settings: for T0 (CFU/ml) / T7d (CFU/ml) / T14d (CFU/ml) / T21d (CFU/ml) / T28d (CFU/ml): 30° C.; for T7d (CFU/ml): 7 days; for T14d (CFU/ml): 14 days; for T21d (CFU/ml): 21 days; for T28d (CFU/ml): 28 days
# Description: as §1
# white blood cells = test: Luminol dependent chemiluminescence of PMA-stimulated white blood cells; type: cell-based; settings: Homo sapiens, 0.5 h, read-out: White blood cell chemiluminescence (IC50 mg/ml)
# Description: Anti-inflammatory activity has been assessed by measuring luminol dependent chemiluminescence generated by free radicals released from whole blood and from white blood cells. The assay has been performed using the following protocol: 10 μl of fresh human blood is mixed with 0.980 ml of Hanks saline solution containing 5×10^−5 M luminol and the test sample (at various concentrations). The chemiluminescent response is recorded continuously for 30 minutes at a temperature of 37° C. The results are expressed as IC50 (mg/ml), i.e. as the minimum sample concentration inhibiting chemiluminescence by 50% with respect to the control. To isolate white blood cells (WBC) from whole blood one proceeds in the following manner: 1 ml of fresh blood is layered onto a Hipaque gradient (p=1.119) and centrifuged at 250×g for 60 minutes at room temperature. Following centrifugation, the pellet containing the white blood cells is washed twice, using a large volume of cold Hanks saline solution. Finally, the washed WBCs are resuspended in 0.1 ml di HBSS containing foetal calf serum. 10^6 WBC are added to a chemiluminometer cuvette. 10 μl of PMA (final concentration equal to 10 nM) are added to induce the formation of free radicals. The chemiluminescent response is recorded continuously for 30 minutes at a temperature of 37° C. […]
smiles,measurement,setting,value
"C[C@@H]1O[C@@H](O[C@@H]2[C@@H](O)[C@H](OCCc3ccc(O)c(O)c3)O[C@H](CO)[C@H]2OC(=O)/C=C/c2ccc(O)c(O)c2)[C@H](O[C@@H]2O[C@H](CO)[C@H](O)[C@H](O)[C@H]2O)[C@H](O)[C@H]1O [Teupolioside, teupolioside]",Lipid peroxidation (IC50),[1]; means of 6 independent assays,9.4 µg/mL
same,IC50,"[2]; first column of Table 9, pH 7.0, 5 μM testosterone, read-out: Type I 5 alpha reductase inhibition (IC50) (converted)",21.6 µM
same,"Anti-microbial activity on Pseudomonas aeruginosa ATCC 9027, comparison in words",[3],activity similar to isoteupolioside
same,"Inhibiting action on the growth of Pseudomonas aeruginosa ATCC 9027, in words",[3]; 5 mg/ml,significant inhibiting action
same,"Anti-microbial activity on Candida albicans ATCC 2091, comparison in words",[4],activity similar to isoteupolioside
same,"Inhibiting action on the growth of Candida albicans ATCC 2091, in words",[4]; 5 mg/ml,significant inhibiting action
same,IC50,"white blood cells; 10^6 WBC, PMA 10 nM, 30 min, 37° C.",0.5 mg/mL
"CC1OC(OC2C(O)C(COC(=O)C=Cc3ccc(O)c(O)c3)OC(OCCc3ccc(O)c(O)c3)C2O)C(OC2OC(CO)C(O)C(O)C2O)C(O)C1O (centres unmarked) [Isoteupolioside, isoteupolioside]",Lipid peroxidation (IC50),[1],9.14 µg/mL
same,IC50,[2],20.3 µM
same,T0 (CFU/ml),[3]; 0.5 mg/ml,9.6 × 10^5 CFU/ml
same,T7d (CFU/ml),[3]; 0.5 mg/ml,1.2 × 10^6 CFU/ml
same,T14d (CFU/ml),[3]; 0.5 mg/ml,2.1 × 10^7 CFU/ml
same,T21d (CFU/ml),[3]; 0.5 mg/ml,2.4 × 10^4 CFU/ml
same,T28d (CFU/ml),[3]; 0.5 mg/ml,9.8 × 10^3 CFU/ml
same,T0 (CFU/ml),[3]; 2 mg/ml,5.9 × 10^5 CFU/ml
same,T7d (CFU/ml),[3]; 2 mg/ml,1.1 × 10^6 CFU/ml
same,T14d (CFU/ml),[3]; 2 mg/ml,1.9 × 10^6 CFU/ml
same,T21d (CFU/ml),[3]; 2 mg/ml,9.2 × 10^3 CFU/ml
same,T28d (CFU/ml),[3]; 2 mg/ml,9.8 × 10^3 CFU/ml
same,"Inhibiting action on the growth of Pseudomonas aeruginosa ATCC 9027, in words",[3]; 5 mg/ml,significant inhibiting action
same,T0 (CFU/ml),[3]; 5 mg/ml,3.6 × 10^5 CFU/ml
same,T7d (CFU/ml),[3]; 5 mg/ml,9.8 × 10^5 CFU/ml
same,T14d (CFU/ml),[3]; 5 mg/ml,1.1 × 10^5 CFU/ml
same,T21d (CFU/ml),[3]; 5 mg/ml,2.5 × 10^3 CFU/ml
same,T28d (CFU/ml),[3]; 5 mg/ml,9 × 10^1 CFU/ml
same,T0 (CFU/ml),[4]; 0.5 mg/ml,9.7 × 10^5 CFU/ml
same,T7d (CFU/ml),[4]; 0.5 mg/ml,1.7 × 10^6 CFU/ml
same,T14d (CFU/ml),[4]; 0.5 mg/ml,5.8 × 10^5 CFU/ml
same,T21d (CFU/ml),[4]; 0.5 mg/ml,7.3 × 10^7 CFU/ml
same,T28d (CFU/ml),[4]; 0.5 mg/ml,6.5 × 10^7 CFU/ml
same,T0 (CFU/ml),[4]; 2 mg/ml,9.1 × 10^5 CFU/ml
same,T7d (CFU/ml),[4]; 2 mg/ml,1.1 × 10^6 CFU/ml
same,T14d (CFU/ml),[4]; 2 mg/ml,2.3 × 10^6 CFU/ml
same,T21d (CFU/ml),[4]; 2 mg/ml,1.2 × 10^5 CFU/ml
same,T28d (CFU/ml),[4]; 2 mg/ml,3.8 × 10^3 CFU/ml
same,"Inhibiting action on the growth of Candida albicans ATCC 2091, in words",[4]; 5 mg/ml,significant inhibiting action
same,T0 (CFU/ml),[4]; 5 mg/ml,8.1 × 10^5 CFU/ml
same,T7d (CFU/ml),[4]; 5 mg/ml,3.1 × 10^5 CFU/ml
same,T14d (CFU/ml),[4]; 5 mg/ml,8.5 × 10^3 CFU/ml
same,T21d (CFU/ml),[4]; 5 mg/ml,5 × 10^1 CFU/ml
same,IC50,white blood cells,0.4 mg/mL
